Columns and labels:
[1] = target: T1, ΔF508-CFTR (Homo sapiens, UniProt P13569, DEL508-508); assay: CFTR cell surface levels using HRP-tagged ΔF508-CFTR expressing CFBE cells, intrinsic corrector capacity; format: cell-based; conditions: HRP-tagged ΔF508-CFTR expressing CFBE cells, intrinsic corrector capacity (no co-corrector), 33° C., 20 hours; for EC50: read-out: EC50
T1 construct: host or cells: CFBE41o-, doxycycline-inducible
Summary of the method: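 Here the cells express ΔF508-CFTR with horseradish peroxidase inserted in extracellular loop 4, so only rescued channel at the surface gives luminescent signal. Compounds act on their own, 20 h at the reduced temperature of 33 °C; values are percent activity relative to DMSO and a 3 μM corrector.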

[2] = target: T1, ΔF508-CFTR; assay: CFTR cell surface levels using HRP-tagged ΔF508-CFTR expressing CFBE cells, in the presence of a co-corrector; format: cell-based; conditions: HRP-tagged ΔF508-CFTR expressing CFBE cells, in the presence of 3 μM co-corrector; for EC50: read-out: EC50
Summary of the method: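 Cells were seeded with 0.5 μg/mL doxycycline and held 68 h at 37 °C. Test compounds plus 3 μM co-corrector (final 0.1% DMSO) were then added for 20 h at 33 °C. Washed cells received HRP substrate, and luminescence was normalized between DMSO and 3 μM co-corrector controls.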

T1 sequence (P13569 with tags, fused parts or gaps DEL508-508): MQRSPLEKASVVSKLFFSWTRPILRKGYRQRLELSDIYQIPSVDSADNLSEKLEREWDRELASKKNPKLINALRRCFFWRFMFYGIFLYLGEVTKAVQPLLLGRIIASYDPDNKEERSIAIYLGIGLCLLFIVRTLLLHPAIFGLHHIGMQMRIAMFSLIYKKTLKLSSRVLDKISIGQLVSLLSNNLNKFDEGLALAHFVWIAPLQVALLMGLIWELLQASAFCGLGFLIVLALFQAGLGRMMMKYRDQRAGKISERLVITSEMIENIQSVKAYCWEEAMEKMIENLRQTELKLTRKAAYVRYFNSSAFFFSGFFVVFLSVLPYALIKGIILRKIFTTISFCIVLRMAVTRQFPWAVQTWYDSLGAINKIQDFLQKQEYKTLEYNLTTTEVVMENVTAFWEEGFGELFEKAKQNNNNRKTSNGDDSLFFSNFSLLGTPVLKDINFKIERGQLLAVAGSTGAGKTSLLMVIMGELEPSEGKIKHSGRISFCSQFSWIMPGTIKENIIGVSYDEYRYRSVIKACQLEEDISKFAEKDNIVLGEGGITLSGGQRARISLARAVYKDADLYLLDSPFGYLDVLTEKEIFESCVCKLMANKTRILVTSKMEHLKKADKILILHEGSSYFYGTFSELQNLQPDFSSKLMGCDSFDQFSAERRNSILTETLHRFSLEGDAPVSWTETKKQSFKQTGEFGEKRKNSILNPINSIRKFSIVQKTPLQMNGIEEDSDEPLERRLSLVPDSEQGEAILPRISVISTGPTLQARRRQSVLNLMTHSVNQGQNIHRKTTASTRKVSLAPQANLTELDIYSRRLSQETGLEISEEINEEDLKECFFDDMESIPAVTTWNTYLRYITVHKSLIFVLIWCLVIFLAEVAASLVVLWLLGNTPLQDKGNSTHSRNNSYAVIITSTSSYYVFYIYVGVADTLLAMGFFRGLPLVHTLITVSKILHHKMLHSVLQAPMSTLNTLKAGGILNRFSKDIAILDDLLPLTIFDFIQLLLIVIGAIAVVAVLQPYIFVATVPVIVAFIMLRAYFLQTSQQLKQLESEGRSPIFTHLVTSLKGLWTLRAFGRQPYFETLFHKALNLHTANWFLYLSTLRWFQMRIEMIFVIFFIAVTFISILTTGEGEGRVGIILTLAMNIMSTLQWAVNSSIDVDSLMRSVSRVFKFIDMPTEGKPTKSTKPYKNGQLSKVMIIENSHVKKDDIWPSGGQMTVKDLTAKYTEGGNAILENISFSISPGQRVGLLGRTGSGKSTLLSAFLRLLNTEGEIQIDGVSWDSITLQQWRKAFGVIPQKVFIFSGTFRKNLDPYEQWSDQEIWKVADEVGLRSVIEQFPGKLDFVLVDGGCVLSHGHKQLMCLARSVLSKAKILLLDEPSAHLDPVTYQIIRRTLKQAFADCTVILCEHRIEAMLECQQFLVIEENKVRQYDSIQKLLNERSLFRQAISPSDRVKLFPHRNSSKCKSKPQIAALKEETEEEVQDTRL

| Structure (SMILES) | % Activation [1] [%] | EC50 [1] [nM] | % Activation [2] [%] | EC50 [2] [nM] |
| --- | --- | --- | --- | --- |
| CN(C)C[C@H](F)C1CCN(c2cc(C(=O)O)nc3c2c(C2CCC2)nn3-c2ccccc2)CC1 [compound 455, 3-cyclobutyl-4-{4-[(1R)-2-(dimethylamino)-1-fluoroethyl]piperidin-1-yl}-1-phenyl-1H-pyrazolo[3,4-b]pyridine-6-carboxylic acid] | 288.4 | 1110 | 421.5 | 452 |
| O=C(O)c1cc(N2CCC([C@H](F)CO)CC2)c2c(C3CCC3)nn(-c3ccccc3)c2n1 [compound 457, 3-cyclobutyl-4-{4-[(1S)-1-fluoro-2-hydroxyethyl]piperidin-1-yl}-1-phenyl-1H-pyrazolo[3,4-b]pyridine-6-carboxylic acid] | 240.3 | 607 | 430.85 | 392 |
| O=C(O)c1cc(N2CCC([C@@H](F)CO)CC2)c2c(C3CCC3)nn(-c3ccccc3)c2n1 [compound 458, 3-cyclobutyl-4-{4-[(1R)-1-fluoro-2-hydroxyethyl]piperidin-1-yl}-1-phenyl-1H-pyrazolo[3,4-b]pyridine-6-carboxylic acid] | 216.4 | 485 | 399.6 | 278 |
| COCCOCC1(F)CCN(c2cc(C(=O)O)nc3c2c(C2CCC2)nn3-c2ccccc2)CC1 [compound 459, 3-cyclobutyl-4-{4-fluoro-4-[(2-methoxyethoxy)methyl]piperidin-1-yl}-1-phenyl-1H-pyrazolo[3,4-b]pyridine-6-carboxylic acid] | 152.05 | 653 | 319.8 | 380 |
| CCOCC1(F)CCCN(c2cc(C(=O)O)nc3c2c(C2CCC2)nn3-c2ccccc2)C1 (centres unmarked) [compound 460, 3-cyclobutyl-4-[3-(ethoxymethyl)-3-fluoropiperidin-1-yl]-1-phenyl-1H-pyrazolo[3,4-b]pyridine-6-carboxylic acid] | 138.15 | 642 | 322.2 | 328 |
| CCOCC1(F)CCN(c2cc(C(=O)O)nc3c2c(C2CCC2)nn3-c2ccccc2)CC1 [compound 461, 3-cyclobutyl-4-[4-(ethoxymethyl)-4-fluoropiperidin-1-yl]-1-phenyl-1H-pyrazolo[3,4-b]pyridine-6-carboxylic acid] | 158.55 | 818 | 328.05 | 343 |
| COCCOCC1(F)CCCN(c2cc(C(=O)O)nc3c2c(C2CCC2)nn3-c2ccccc2)C1 (centres unmarked) [compound 462, 3-cyclobutyl-4-{3-fluoro-3-[(2-methoxyethoxy)methyl]piperidin-1-yl}-1-phenyl-1H-pyrazolo[3,4-b]pyridine-6-carboxylic acid] | 156.2 | 486 | 316.85 | 318 |
| COCC1(F)CCN(c2cc(C(=O)O)nc3c2c(C2CCC2)nn3-c2ccccc2)CC1 [compound 463, 3-cyclobutyl-4-[4-fluoro-4-(methoxymethyl)piperidin-1-yl]-1-phenyl-1H-pyrazolo[3,4-b]pyridine-6-carboxylic acid] | 157.75 | 686 | 341.85 | 373 |
| O=C(O)c1cc(N2CC[C@@H](O)[C@H](F)C2)c2c(C3CCC3)nn(-c3ccccc3)c2n1 [compound 464, 3-cyclobutyl-4-[(3R,4R)-3-fluoro-4-hydroxypiperidin-1-yl]-1-phenyl-1H-pyrazolo[3,4-b]pyridine-6-carboxylic acid] | 163.6 | 1140 | 328.25 | 408 |
| O=C(O)c1cc(N2CC[C@@H](F)[C@H](O)C2)c2c(C3CCC3)nn(-c3ccccc3)c2n1 [compound 465, 3-cyclobutyl-4-[(3R,4R)-4-fluoro-3-hydroxypiperidin-1-yl]-1-phenyl-1H-pyrazolo[3,4-b]pyridine-6-carboxylic acid] | 91.04 | 1850 | 244.6 | 703 |
| O=C(O)c1cc(N2CC(N3CCCCC3)C2)c2c(C3CCC3)nn(-c3ccccc3)c2n1 [compound 466, 3-cyclobutyl-1-phenyl-4-[3-(piperidin-1-yl)azetidin-1-yl]-1H-pyrazolo[3,4-b]pyridine-6-carboxylic acid] | 116.25 | 2330 | 271.1 | 1290 |
| CS(=O)(=O)[C@@H]1CCN(c2cc(C(=O)O)nc3c2c(C2CCC2)nn3-c2ccccc2)C1 [compound 467, 3-cyclobutyl-4-[(3R)-3-(methanesulfonyl)pyrrolidin-1-yl]-1-phenyl-1H-pyrazolo[3,4-b]pyridine-6-carboxylic acid] | 97.95 | 3340 | 274.35 | 3340 |
| COC1CCCN(c2cc(C(=O)O)nc3c2c(C2CCC2)nn3-c2ccccc2)C1 (centres unmarked) [compound 468, 3-cyclobutyl-4-(3-methoxypiperidin-1-yl)-1-phenyl-1H-pyrazolo[3,4-b]pyridine-6-carboxylic acid] | 120.3 | 618 | 297.2 | 371 |
| CC(C)N1CNC(=O)C12CCN(c1cc(C(=O)O)nc3c1c(C1CCC1)nn3-c1ccccc1)CC2 [compound 469, 3-cyclobutyl-4-[4-oxo-1-(propan-2-yl)-1,3,8-triazaspiro[4.5]decan-8-yl]-1-phenyl-1H-pyrazolo[3,4-b]pyridine-6-carboxylic acid] | 198.95 | 1120 | 360.3 | 716 |
| O=C(O)c1cc(N2CCN(CC(F)(F)F)CC2)c2c(C3CCC3)nn(-c3ccccc3)c2n1 [compound 470, 3-cyclobutyl-1-phenyl-4-[4-(2,2,2-trifluoroethyl)piperazin-1-yl]-1H-pyrazolo[3,4-b]pyridine-6-carboxylic acid] | 147.5 | 736 | 311.25 | 427 |
| O=C(O)c1cc(N2CCN(CCCO)CC2)c2c(C3CCC3)nn(-c3ccccc3)c2n1 [compound 471, 3-cyclobutyl-4-[4-(3-hydroxypropyl)piperazin-1-yl]-1-phenyl-1H-pyrazolo[3 ,4-b]pyridine-6-carboxylic acid] | 106.45 | 3340 | 259.9 | 2990 |
| O=C(O)c1cc(N2CCN(CC(=O)N3CCCC3)CC2)c2c(C3CCC3)nn(-c3ccccc3)c2n1 [compound 472, 3-cyclobutyl-4-{4-[2-oxo-2-(pyrrolidin-1-yl)ethyl]piperazin-1-yl}-1-phenyl-1H-pyrazolo[3,4-b]pyridine-6-carboxylic acid] | 144 | 2490 | 292.55 | 1380 |
| O=C(O)c1cc(N2CCCCCC2)c2c(C3CCC3)nn(-c3ccccc3)c2n1 [compound 473, 4-(azepan-1-yl)-3-cyclobutyl-1-phenyl-1H-pyrazolo[3,4-b]pyridine-6-carboxylic acid] | 102.9 | 1020 | 280.9 | 545 |
| O=C(O)c1cc(N2CCN(CC(=O)N3CCOCC3)CC2)c2c(C3CCC3)nn(-c3ccccc3)c2n1 [compound 474, 3-cyclobutyl-4-{4-[2-(morpholin-4-yl)-2-oxoethyl]piperazin-1-yl}-1-phenyl-1H-pyrazolo[3,4-b]pyridine-6-carboxylic acid] | 125.3 | 3340 | 301.35 | 2250 |
| O=C(O)c1cc(N2CCN3C[C@H](O)C[C@H]3C2)c2c(C3CCC3)nn(-c3ccccc3)c2n1 [compound 475, 3-cyclobutyl-4-[(7R,8aS)-7-hydroxyhexahydropyrrolo[1,2-a]pyrazin-2(1H)-yl]-1-phenyl-1H-pyrazolo[3,4-b]pyridine-6-carboxylic acid] | 35.755 | 6670 | 163.35 | 2720 |
| CC1(COc2cc(C(=O)O)nc3c2c(C2CCC2)nn3-c2ccccc2)CC(F)(F)C1 [compound 476, 3-cyclobutyl-4-[(3,3-difluoro-1-methylcyclobutyl)methoxy]-1-phenyl-1H-pyrazolo[3,4-b]pyridine-6-carboxylic acid] | 121.45 | 513 | 297.8 | 386 |
| O=C(O)c1cc(OCCC2CC(F)(F)C2)c2c(C3CCC3)nn(-c3ccccc3)c2n1 [compound 477, 3-cyclobutyl-4-[2-(3,3-difluorocyclobutyl)ethoxy]-1-phenyl-1H-pyrazolo[3,4-b]pyridine-6-carboxylic acid] | 97.78 | 1020 | 266.3 | 501 |
| CC(C)N(CCOc1cc(C(=O)O)nc2c1c(C1CCC1)nn2-c1ccccc1)C1COC1 [compound 478, 3-cyclobutyl-4-{2-[(oxetan-3-yl)(propan-2-yl)amino]ethoxy}-1-phenyl-1H-pyrazolo[3,4-b]pyridine-6-carboxylic acid] | 125.2 | 828 | 292 | 409 |
